Measurements as given in patent publication US8309790B2, “Animal models for demyelination disorders” (University of Chicago, priority 2005, dated 2012).

Legend:
mice with EAE = assay: EAE, CNS delivery of INF-γ at the recovery stage (doxycycline withdrawn at PID7); type: in vivo
From the text: Double transgenic mice that allow for temporally regulated delivery of INF-γ to the CNS (Lin et al., J Neurosci 24:10074-10083 (2004)) were used to assess the role of INF-γ in the pathogenesis of EAE. GFAP/tTA; TRE/IFN-γ double transgenic mice, as described in Example 1 were used to determine the effect of INF-γ on the demyelination caused by EAE. All mice were fed doxycycline from the day of conception to repress the expression of INF-γ, and were immunized with myelin oligodendrocyte protein (MOG35-55) to induce EAE. At day 7 postimmunization (PID7), doxycycline was withdrawn from the experimental group (PID7 DOX−).
The level of INF-γ was determined in the control (DOX+) and the PID7 DOX− mice using an ELISA immunoassay as described in Example 1, and the severity of the disease was assessed as a function of a clinical score. Clinical severity scores were recorded daily according to a 0-5 point scale, where 0=healthy, 1=flaccid tail, 2=ataxia and/or paresis of hind limbs, 3=paralysis of hind limbs and/or paresis of forelimbs, 4=tetraparalysis, and 5=moribund or dead.
The spinal cord from DOX+ and DOX− animals with EAE was immunostained for MBP, and the remyelination of axons was evaluated. The number of oligodendrocytes was determined in the spine from DOX+ and DOX− mice as the number of CC1 positive cells. Axonal damage was evaluated by immunostaining of non-phosphorylated neurofilament-H. Antibodies to non-phosphorylated neurofilament-H were SMI32 diluted to 1:1000 and obtained from Stemberger Monoclonals.
INF-γ is known to induce MHC antigens and activate macrophages and T lymphocytes. The inflammatory effect of INF-γ was studied in the CNS during remyelination by determining the infiltration of T cells and macrophages, and measuring the expression of MHC-1, TNF-a, IL-2, IL-12 and IL-17. Immunohistochemistry was performed in tissues from the DOX+ and DOX− mice with EAE as described in Example 4. Experimental procedures were followed as described in the examples above.

[1] = system: oligodendrocytes in adult mice; assay: IFN-γ expression in the CNS of adult double transgenic mice (released from doxycycline at 4 weeks of age); type: in vivo
From the text: Compared with the actively myelinating oligodendrocytes of young growing animals, oligodendrocytes in adult mice produce lower levels of membrane proteins and lipids, just enough to maintain homeostasis in the myelin structure (Morell, et al. (1999) Basic Neurochemistry: Molecular, Cellular, and Medical Aspects (Philadelphia, Pa.: Lippincott-Raven Publishers): 69-93). The ER of oligodendrocytes in adult animals may thus have more spare capacity to process increased protein load and as such may be less sensitive to disruptions of the protein secretory pathway. To examine this possibility, double transgenic mice were allowed to develop to maturity, at which time IFN-γ expression in the CNS was initiated.

[2] = spinal cord, DOX− compared to DOX+, PID50

Substance: interferon-γ [IFN-γ]
- number of CC1 positive oligodendrocytes (mice with EAE; DOX− animals, lumbar spinal cord, PID50): significantly decreased
- mice that developed hind limb paralysis (mice with EAE; DOX− mice, PID17): 24 of 30
- mean maximum clinical score (mice with EAE; DOX− mice, PID17, 0-5 point scale): 2.69±0.69
- clinical score (mice with EAE; DOX− mice, PID50): ~2
- mice with hind limb paralysis that continued to suffer from the paralysis (mice with EAE; DOX− mice, PID50): 12/24
- axonal damage (non-phosphorylated neurofilament-H immunostaining) (mice with EAE; DOX− vs DOX+ mice): not affected
- number of infiltrating T cells and macrophages in the lumbar spinal cord (CD3, CD11b) (mice with EAE; DOX− vs DOX+ mice): did not increase significantly
- expression of IL-17 (mice with EAE; [2]): decrease
- expression of iNOs and IL-23 (mice with EAE; [2]): did not alter
- expression of MHC-1, TNF-a, IL2 and IL-12 (mice with EAE; spinal cord, DOX− compared to DOX+, PID50, real time PCR): increased
- BIP and CHOP in the cerebellum ([1]; 10-week-old mice released from doxycycline at 4 weeks of age): modest induction
- oligodendrocyte survival ([1]; adult mice, wild-type or PERK+/− background): did not affect
